For the assay, the target named is T1, SF9 affinity purified rat FPT (Rattus norvegicus, UniProt Q02293+Q04631).
T1 construct: made in house; host or cells: Sf9 insect cells
Put plainly: PFT (FPT) inhibitory activity assay, radiolabeled farnesyl pyrophosphate and biotinyl peptide, streptavidin beads. The assay is classed as biochemical. The following applies: HEPES buffer pH 7.4, 30° C., 30 minutes; read-out: FTase IC50. The method, then:
The PFT or FPT inhibitory activity of compounds of the present invention were assayed in HEPES buffer (pH 7.4) containing 5 mM potassium phosphate and 20 μM ZnCl2. The solution also contained 5 mM DTT (dithiothreitol), 5 mM MgCl2, and 0.1% PEG 8000. Assays were performed in 96 well plates (Wallec) and employed solutions composed of varying concentrations of a compound of the present invention in 10% DMSO (dimethylsulfoxide). […] After incubation at 30° C. for 30 minutes, the reaction was terminated by diluting the reaction 2.5-fold with a stop buffer containing 1.5 M magnesium acetate, 0.2 M H3PO4, 0.5% BSA (bovine serum albumin), and strepavidin beads (Amersham) at a concentration of 1.3 mg/mL. […] The assay was also carried out without 5 mM potassium phosphate.

Where a name gives a salt, the structure may show the parent alone.

By IC50 is commonly meant the midpoint of a concentration-inhibition curve.

As to “6-((1S)-2-Indazolyl-1-phenylethoxy)-5-amino-2,3,4-trihydronaphthalen-1-one [Compound 37]”, the IC50 came out at 13 nM. As for `CCC(C)OCc1c(O[C@H](Cn2ccnc2)c2ccccc2)ccc2c1CCCC2=O` (mixture of isomers) [Compound 19d, (±)5-sec-Butoxymethyl-6-((S)-2-imidazol-1-yl-1-phenyl-ethoxy)-3,4-dihydro-2H-naphthalen-1-one], the figure is 1.9 nM. For the compound `O=C1CCC(c2ccccc2)c2cc(OC(Cn3ccnc3)c3ccccc3)ccc21` (racemic) [Compound 48, (±)-6-(2-imidazolyl-O-phenylethoxy)-4-phenyl-2,3,4-trihydronaphthalen-1-one], the half-inhibitory concentration (IC50) was 35 nM. As for `C=CCc1c(OC(Cn2ccnc2)c2ccccc2)ccc2c1CCCC2=O` (racemic) [Compound 49, (±)-6-(2-imidazolyl-1-phenylethoxy)-5-prop-2-ethyl-2,3,4-trihydronaphthalen-1-one], the figure is 17 nM. On to `C=C(C)Cc1c(OC(Cn2ccnc2)c2ccccc2)ccc2c1CCCC2=O` (racemic) [Compound 52, (±)-6-(2-Imidazolyl-1-phenylethoxy)-5-(2-methylprop-2-enyl)-2,3,4-trihydronaphthalen-1-one], for which the IC50 amounted to 8 nM. As for `C=CCc1c(OC(Cn2ccnc2)c2ccccc2Cl)ccc2c1CCCC2=O` (racemic) [Compound 59, (±)-6-[1-(2-Chlorophenyl)-2-imidazolylethoxy]-5-prop-2-enyl-2,3,4-trihydronaphthalen-1-one], the figure is 12 nM; as for `C=CCc1c(OC(Cn2ccnc2)c2c(Cl)cccc2Cl)ccc2c1CCCC2=O` (racemic) [Compound 60, (±)-6-[0-(2,6-Dichlorophenyl)-2-imidazolylethoxy]-5-prop-2-enyl-2,3,4-trihydronaphthalen-1-one, Trifluoroacetic Acid], 29 nM. As for `C=CCc1c(OC(Cn2ccnc2)c2cccs2)ccc2c1CCCC2=O` (racemic) [Compound 61, (±)-6-(2-imidazolyl-1-(2-thienyl)ethoxy)-5-prop-2-ethyl-2,3,4-trihydronaphthalen-1-one], the figure is 7 nM; as for `Cc1nccn1CC(Oc1ccc2c(c1CCc1ccccc1)CCCC2=O)c1ccccc1` (racemic) [Compound 63o, (±)-6-[2-(2-Methyl-imidazol-yl)-1-phenyl-ethoxy]-5-phenethyl-3,4-dihydro-2H-naphthalen-1-one], 4 nM; as for `O=C1CCCc2c1ccc(O[C@H](Cn1ccnc1)c1ccccc1)c2C[S+]([O-])c1ccccn1` (mixture of isomers) [Compound 142, 6-((S)-2-Imidazol-1-yl-1-phenyl-ethoxy)-5-(pyridine-2-sulfinylmethyl)-3,4-dihydro-2H-napthalen-1-one], 0.55 nM. As for `CC(C)[S+]([O-])Cc1c(O[C@H](Cn2ccnc2)c2ccccc2)ccc2c1CCCC2=O` (mixture of isomers) [Compound 143, 6-((S)-2-Imidazol-1-yl-1-phenyl-ethoxy)-5-(propane-2-sulfinylmethyl)-3,4-dihydro-2H-napthalen-1-one], the figure is 1.4 nM; as for `O=C1CCCc2c1ccc(O[C@H](Cn1ccnc1)c1cccnc1)c2CCc1ccccc1` (single isomer, unassigned) [Compound 63a], 0.4 nM; as for `O=C1CCCc2c1ccc(O[C@H](Cn1ccnc1)c1ccccc1)c2CSc1ccccc1` [Compound 1, 6-((1S)-2-Imidazolyl-1-phenylethoxy)-5-(phenylthiomethyl)-2,3,4-trihydronaphthalen-1-one], 0.3 nM. For `O=C1CCCc2c1ccc(O[C@H](Cn1ccnc1)c1ccccc1)c2C[S+]([O-])c1ccccc1` (some centres unmarked) [Compound 2], the concentration for half-maximal inhibition (IC50) was found to be 3 nM. With `O=C1CCCc2c1ccc(O[C@H](Cn1ccnc1)c1ccccc1)c2CS(=O)(=O)c1ccccc1` [Compound 3], the half-inhibitory concentration (IC50) was determined as 0.3 nM. As for `COC(=O)c1ccccc1SCc1c(O[C@H](Cn2ccnc2)c2ccccc2)ccc2c1CCCC2=O` [Compound 4, Methyl 2-{[2-((1S)-2-imidazolyl-1-phenylethoxy)-5-oxo-6,7,8-trihydronaphthyl]methylthio}benzoate], the figure is 0.3 nM; as for `O=C(O)c1ccccc1SCc1c(O[C@H](Cn2ccnc2)c2ccccc2)ccc2c1CCCC2=O` [Compound 5, 2-{[2-((1S)-2-Imidazolyl-1-phenylethoxy)-5-oxo-6,7,8-trihydronaphenyl]methylthio}benzoic acid], 2 nM. As for `CC(C)SCc1c(O[C@H](Cn2ccnc2)c2ccccc2)ccc2c1CCCC2=O` [Compound 6, 6-((S)-2-Imidazol-1-yl-1-phenyl-ethoxy)-5-isopropylsulfanylmethyl-2,3,4-trihydronaphthalen-1-one], the figure is 0.4 nM; as for `CC(C)S(=O)(=O)Cc1c(O[C@H](Cn2ccnc2)c2ccccc2)ccc2c1CCCC2=O` [Compound 7], 6 nM. As for `O=C1CCCc2c1ccc(O[C@H](Cn1ccnc1)c1ccccc1)c2CSc1ccncc1` [Compound 8], the figure is 3 nM. For `O=C1CCCc2c1ccc(O[C@H](Cn1ccnc1)c1ccccc1)c2CSc1ccccn1` [Compound 9, 6-((1S)-2-Imidazolyl-1-phenylethoxy)-5-(2-pyridylthiomethyl)-2,3,4-trihydronaphthalen-1-one], the half-maximal inhibitory concentration (IC50) stood at 4 nM. As for `O=C1CCCc2c1ccc(O[C@H](Cn1ccnc1)c1ccccc1)c2CS(=O)(=O)c1ccccn1` [Compound 10, 6-(1S)-2-Imidazolyl-1-phenylethoxy)-5-[(2-pyridylsulfonyl)methyl]-2,3,4-trihydronaphthalen-1-one hydrochloride], the figure is 0.3 nM; as for `O=C1CCCc2c1ccc(O[C@H](Cn1ccnc1)c1ccccc1)c2CSc1cccc2ccccc12` [Compound 10a, 6-((S)-2-Imidazol-1-yl-1-phenyl-ethoxy)-5-(naphthalen-1-ylsulfanylmethyl)-3,4-dihydro-2H-naphthalen-1-one], 30.5 nM.

As to `COC(=O)CSCc1c(O[C@H](Cn2ccnc2)c2ccccc2)ccc2c1CCCC2=O` [Compound 10b, [2-(2-Imidazol-1-yl-1(S)-phenyl-ethoxy)-5-oxo-5,6,7,8-tetrahydro-naphthalen-1-ylmethylsulfanyl]-acetic acid methyl ester], the 50% inhibitory concentration (IC50) was 2.5 nM. As for `O=C1CCCc2c1ccc(O[C@H](Cn1ccnc1)c1ccccc1)c2CSCc1ccc(Cl)c(Cl)c1` [Compound 10c, 5-(3,4-Dichloro-benzylsulfanylmethyl)-6-((1S)-2-imidazol-1-yl-1-phenyl-ethoxy)-3,4-dihydro-2H-naphthalen-1-one], the figure is 5.3 nM. As for `O=C1CCCc2c1ccc(O[C@H](Cn1ccnc1CO)c1ccccc1)c2CS(=O)(=O)c1ccccc1` [Compound 10d, (S)-6{2-[2-(Hydroxymethyl)-1H-imidazol-1-yl]-1-phenylethoxy}-5-[(phenylsulfonyl)methyl]-3,4-dihydro-1(2H)-naphthalenone], the figure is 5.5 nM; as for `O=C1CCCc2c1ccc(O[C@H](Cn1ccnc1)c1ccccc1)c2CNc1ccccc1` [Compound 11], 0.2 nM. As for `CN(Cc1c(O[C@H](Cn2ccnc2)c2ccccc2)ccc2c1CCCC2=O)c1ccccc1` [Compound 12], the figure is 4 nM; as for `COC(=O)c1ccc(N(C)Cc2c(O[C@H](Cn3ccnc3)c3ccccc3)ccc3c2CCCC3=O)cc1` [Compound 13, Methyl 4-({[2-((1S)-2-imidazolyl-1-phenylethoxy)-5-oxo(6,7,8-trihydronaphthyl)]methyl}methylamino)benzoate], 2 nM.

As to `CC(C)OCc1c(O[C@H](Cn2ccnc2)c2ccccc2)ccc2c1CCCC2=O` [Compound 15, hydrochloride], the half-maximal inhibitory concentration (IC50) was determined as 0.2 nM. As for `O=C1CCCc2c1ccc(O[C@H](Cn1ccnc1)c1ccccc1)c2COCc1ccccc1` [Compound 16, 6-((1S)-2-Imidazolyl-1-phenylethoxy)-5-[(phenylmethoxy)methyl]-2,3,4-trihydronaphthalen-1-one], the figure is 0.8 nM. As for `O=C1CCCc2c1ccc(O[C@H](Cn1ccnc1)c1ccccc1)c2COC1CCCC1` [Compound 17], the figure is 0.3 nM; as for `C=CCOCc1c(O[C@H](Cn2ccnc2)c2ccccc2)ccc2c1CCCC2=O` [Compound 18, 6-((1S)-2-imidazolyl-1-phenylethoxy)-5-(prop-2-enyloxymethyl)-2,3,4-trihydronaphthalen-1-one], 8 nM; as for `CC(C)COCc1c(O[C@H](Cn2ccnc2)c2ccccc2)ccc2c1CCCC2=O` [Compound 19a, 6-((S)-2-Imidazol-1-yl-1-phenyl-ethoxy)-5-isobutoxymethyl-1-3,4-dihydro-2H-naphthalen-1-one], 1.9 nM.

With `CCCOCc1c(O[C@H](Cn2ccnc2)c2ccccc2)ccc2c1CCCC2=O` [Compound 19b, 6-((S)-2-Imidazol-1-yl-1-phenyl-ethoxy)-5-propoxymethyl-3,4-dihydro-2H-naphthalen-1-one], the concentration for half-maximal inhibition (IC50) came out at 3.6 nM. As for `CCC(CC)OCc1c(O[C@H](Cn2ccnc2)c2ccccc2)ccc2c1CCCC2=O` [Compound 19c, 5-(1-Ethyl-propoxymethyl)-6-((S)-2-imidazol-1-yl-1-phenyl-ethoxy)-3,4-dihydro-2H-naphthalen-1-one], the figure is 1.4 nM; as for `O=C1CCCc2c1ccc(O[C@H](Cn1ccnc1)c1ccccc1)c2CCc1ccccc1` [Compound 20], 0.4 nM. With `O=C1CCCc2c1ccc(O[C@H](Cn1ccnc1)c1ccccc1)c2-c1ccc2c(c1)OCO2` [Compound 21, 5-(2H-Benzo[d]-1,3-dioxolan-5-yl)-6-((1S)-2-imidazolyl-1-phenylethoxy)-2,3,4-trihydronaphthalen-1-one], the IC50 was 8 nM.

For the origin of these results see patent publication US6943183B2 (Pfizer Inc, priority 2000, dated 2005).
